Values quoted from earlier work in patent US20090233840A1, “Modified Dynorphin Expression in Animals and Identification of Compounds for Treatment of Obesity and Diabetes” (priority 2004, published 2009).

Key:
[1] = not affected by naloxone or norBNI
[2] = test system: cultured cortical cells from Sprague Dawley rats; details: comparable to that induced by NMDA; resistant to naloxone
[3] = intracerebroventricularly
[4] = administered ICV

**Q.** For “Dyn A(1-13) (YGGFLRRIRPKLK; Dynorphin A(1-13); UniProt P01213 207-219, looked up, fragment)”, which “potency in writhing assay” value [1] is on record?
**A.** Its value is “very potent”.

**Q.** With dynorphin A (2-17) as the substance, how does the intracellular calcium concentration [2] read?
**A.** Its intracellular calcium concentration is “increase in intracellular calcium concentration”.

**Q.** What does the source list for “dynorphin A (YGGFLRRIRPKLKWDNQ; Dynorphin A(1-17); UniProt P01213 207-223, looked up) [[Leu]-enkephalin-containing opioid peptide encoded by the preprodynorphin gene]”?
**A.** analgesic effect [3]: moderate analgesic effect; analgesic efficacy [4]: ineffective
